According to patent US20160251725A1, “METHOD FOR PREDICTING CLINICAL TOXICITY AND OUTCOME” (AGENCY FOR SCIENCE, TECHNOLOGY AND RESEARCH, priority 2013, published 2016):
Where two headings read alike, the source gives them in different places.

Legend:
mRCC patients = test: Progression-free and overall survival on first-line sunitinib (Kaplan-Meier, Cox regression); assay type: in vivo, human; settings: for Overall survival HR multivariate / Progression-free survival HR multivariate: starting dose as covariate
Procedure: Twelve patients in this study received a starting dose of 50 mg daily. Six patients started with 25 mg daily due to advanced age or patients' aversion to expected toxicities.
Genotype associations with toxicity events or responsive tumor were first analyzed using univariate logistic regression. Genotypes generating P<0.20 were further analyzed using multivariate logistic regression including patient age, gender, baseline ECOG status and starting dose as covariates. Progression-free survival and overall survival were estimated by means of Kaplan-Meier method, while the associations of genotypes and patient characteristics with PFS and OS were analyzed using two-tailed log rank test. The effects of genotypes on the progression-free survival and overall survival were then evaluated using multivariate Cox regression model by including genotypes and patient characteristics with P<0.05 in univariate analysis. […] In all analyses, missing data were kept missing except for baseline ECOG status, which was replaced with the median value. As this was designed as a validation study of previously observed correlations rather than an exploratory evaluation, multiple testing correction was not done.

patients = settings: cited from earlier work; for Dose reductions: n = 96, Beuselinck et al., 2014
[1] = ABCB1 haplotype TTT/TTT (homozygous carriers)
[2] = ABCB1 haplotype TTT/TTT vs Other
[3] = ABCG2 421 C/A AA genotype, n = 65, Kim et al., 2013

CCN(CC)CCNC(=O)c1c(C)[nH]c(/C=C2\C(=O)Nc3ccc(F)cc32)c1C [sunitinib]
Median overall survival (mRCC patients; ABCB1 1236 T/C CC + CT): 20 months | Median progression-free survival (mRCC patients; ABCB1 1236 T/C CC + CT): 11.7 months | Median overall survival (mRCC patients; ABCB1 1236 T/C TT): 10.4 months | Median progression-free survival (mRCC patients; ABCB1 1236 T/C TT): 3.6 months | Overall survival HR univariate (mRCC patients; ABCB1 1236 TT vs CC + CT): 1.7 | Progression-free survival HR univariate (mRCC patients; ABCB1 1236 TT vs CC + CT): 1.7 | Overall survival HR multivariate (mRCC patients; ABCB1 1236 TT vs CC + CT): 1.7 | Progression-free survival HR multivariate (mRCC patients; ABCB1 1236 TT vs CC + CT): 1.7 | Median overall survival (mRCC patients; ABCB1 2677 G/TA Other): 19.6 months | Median progression-free survival (mRCC patients; ABCB1 2677 G/TA Other): 8.4 months | Median overall survival (mRCC patients; ABCB1 2677 G/TA TT): 5.9 months | Median progression-free survival (mRCC patients; ABCB1 2677 G/TA TT): 2.7 months | Overall survival HR univariate (mRCC patients; ABCB1 2677 TT vs Other): 2.9 | Progression-free survival HR univariate (mRCC patients; ABCB1 2677 TT vs Other): 2.3 | Overall survival HR multivariate (mRCC patients; ABCB1 2677 TT vs Other): 2.0 | Progression-free survival HR multivariate (mRCC patients; ABCB1 2677 TT vs Other): 1.5 | Median overall survival (mRCC patients; ABCB1 3435 C/T CC + CT): 19.5 months | Median progression-free survival (mRCC patients; ABCB1 3435 C/T CC + CT): 8.4 months | Median overall survival (mRCC patients; ABCB1 3435 C/T TT): 7.2 months | Median progression-free survival (mRCC patients; ABCB1 3435 C/T TT): 2.7 months | Overall survival HR univariate (mRCC patients; ABCB1 3435 TT vs CC + CT): 1.6 | Progression-free survival HR univariate (mRCC patients; ABCB1 3435 TT vs CC + CT): 1.7 | Overall survival HR multivariate (mRCC patients; ABCB1 3435 TT vs CC + CT): 1.7 | Progression-free survival HR multivariate (mRCC patients; ABCB1 3435 TT vs CC + CT): 1.7 | Median overall survival (mRCC patients; ABCB1 haplotype Other): 19.6 months | Median progression-free survival (mRCC patients; ABCB1 haplotype Other): 8.4 months | Median overall survival (mRCC patients; [1]): 4.6 months | Median progression-free survival (mRCC patients; [1]): 2.4 months | Overall survival HR univariate (mRCC patients; [2]): 3.9 | Progression-free survival HR univariate (mRCC patients; [2]): 4.9 | Overall survival HR multivariate (mRCC patients; [2]): 5.0 | Progression-free survival HR multivariate (mRCC patients; [2]): 5.5 | Overall survival HR univariate (mRCC patients; Age): 1.0 | Progression-free survival HR univariate (mRCC patients; Age): 1.0 | Median overall survival (mRCC patients; Baseline ECOG 0): 32.9 months | Median progression-free survival (mRCC patients; Baseline ECOG 0): 16.1 months | Median overall survival (mRCC patients; Baseline ECOG 1): 19.6 months | Median progression-free survival (mRCC patients; Baseline ECOG 1): 6.9 months | Overall survival HR univariate (mRCC patients; Baseline ECOG 1 vs 0): 1.9 | Progression-free survival HR univariate (mRCC patients; Baseline ECOG 1 vs 0): 2.2 | Median overall survival (mRCC patients; Baseline ECOG 2): 5.7 months | Median progression-free survival (mRCC patients; Baseline ECOG 2): 3.3 months | Overall survival HR univariate (mRCC patients; Baseline ECOG 2 vs 0): 3.0 | Progression-free survival HR univariate (mRCC patients; Baseline ECOG 2 vs 0): 2.8 | Median overall survival (mRCC patients; Baseline ECOG 3): 15.7 months | Median progression-free survival (mRCC patients; Baseline ECOG 3): 12.9 months | Overall survival HR univariate (mRCC patients; Baseline ECOG 3 vs 0): 2.7 | Progression-free survival HR univariate (mRCC patients; Baseline ECOG 3 vs 0): 2.8 | Median overall survival (mRCC patients; Gender Female): 19.9 months | Median progression-free survival (mRCC patients; Gender Female): 10.0 months | Median overall survival (mRCC patients; Gender Male): 16.3 months | Median progression-free survival (mRCC patients; Gender Male): 8.1 months | Median overall survival (mRCC patients; MSKCC Good): 41.4 months | Median progression-free survival (mRCC patients; MSKCC Good): 12.6 months | Median overall survival (mRCC patients; MSKCC Intermediate): 19.6 months | Median progression-free survival (mRCC patients; MSKCC Intermediate): 10.0 months | Overall survival HR univariate (mRCC patients; MSKCC Intermediate vs Good): 2.2 | Progression-free survival HR univariate (mRCC patients; MSKCC Intermediate vs Good): 1.3 | Median overall survival (mRCC patients; MSKCC Poor): 14 months | Median progression-free survival (mRCC patients; MSKCC Poor): 5.5 months | Overall survival HR univariate (mRCC patients; MSKCC Poor vs Good): 3.1 | Progression-free survival HR univariate (mRCC patients; MSKCC Poor vs Good): 2.3 | Overall survival HR univariate (mRCC patients; Male vs Female): 1.1 | Progression-free survival HR univariate (mRCC patients; Male vs Female): 1.1 | Median overall survival (mRCC patients; Starting dose 37.5 mg): 19.5 months | Median progression-free survival (mRCC patients; Starting dose 37.5 mg): 8.3 months | Median overall survival (mRCC patients; Starting dose 50 mg): 47.4 months | Median progression-free survival (mRCC patients; Starting dose 50 mg): 17.3 months | Overall survival HR univariate (mRCC patients; Starting dose 37.5 vs ≦37.5 mg): 0.2 | Overall survival HR univariate (mRCC patients; Starting dose 50 vs ≦37.5 mg): 0.1 | Median overall survival (mRCC patients; Starting dose ≦37.5 mg): 4.6 months | Median progression-free survival (mRCC patients; Starting dose ≦37.5 mg): 1.8 months | Median overall survival (mRCC patients; all 81 first-line patients): 19.5 months | Median progression-free survival (mRCC patients; all 81 first-line patients): 8.1 months | Dose reductions (patients; ABCB1 1236 T/C TT genotype): Less dose | Dose reductions (patients; ABCB1 2677G/TA TT or TA genotypes): Less dose | HFS (hand-foot syndrome) (patients; ABCB1 TTT haplotype, n = 219, van Erp et al., 2009): HFS increased | HFS (hand-foot syndrome) (patients; [3]): More | Neutropenia (patients; [3]): More | Thrombocytopenia (patients; [3]): More | Any toxicity grade>2 (patients; in vivo): increased with T | Leucopenia (patients; in vivo): increased with T
